# Legend:
# Balb/c mice = test: LPS induced TNF-α release in Balb/c mice, pre-treatment; type: in vivo; conditions: 1 hr post LPS
# Description: The present invention has studied the ability of RSCL-0409 to exert protection against inflammatory agents in a mice (Balb/c) model. Balb/c (5-6 weeks) mice were injected with LPS (225 μg) intraperitoneally with and without pretreatment of three concentrations of RSCL-0409 (10 mg/kg, 20 mg/kg and 40 mg/kg). The compound was injected intraperitoneally 30 min before LPS treatment. The mice were monitored for 1 hr post LPS treatment. RSCL-0409 injected alone served as negative control. Blood collection was done retro-orbitally under anesthesia, 1 hr post LPS injection. Serum collected after cells were allowed to settle was analysed for TNF-α secretion.
# [1] = system: ICAM-1, COX-2, IL-1β and IL-8 genes; test: mRNA expression of pro-inflammatory genes in THP-1 cells; type: cell-based, human; conditions: THP-1, LPS 250 ng/ml
# Description: The inhibitory effect of the present invention, RSCL-0409 on mRNA was checked on pro-inflammatory genes like intercellular adhesion molecule1 (ICAM-1), cyclooxygenase 2 (COX-2), IL-1β and IL-8. THP-1 cells (3×10^6 cells) were seeded in a 6-well dish. The cells were treated with RSCL-0409 ([…]) for 1 hr followed by incubation with or without 250 ng/ml of LPS. After two washes with ice-cold PBS, the cells were harvested and total cellular RNA was isolated using TRIZOL Reagent (Invitrogen) according to the manufacturer's instructions. cDNA synthesis was done using high capacity cDNA reverse transcription kit (ABI systems). Amplification of ICAM-1, COX-2, IL-1β and IL-8 genes from the cDNA was carried out using the respective gene specific primers.
# RAW264.7 cells = test: LPS induced nitric oxide (NO) release in RAW 264.7 cells (Griess reaction); type: cell-based; conditions: RAW264.7, LPS 250 ng/ml
# Description: RAW264.7 cells provide an excellent model for evaluations of potential inhibitors on the pathway leading the induction of iNOS and NO production. Nitric oxide production was determined in RAW264.7 cells from the National Center of Cell Science (NCCS, Pune) cultured in color-free DMEM with standard supplements by measuring the amount of nitrite from cell culture supernatant. RAW264.7 cells (5×10^4 per well) were stimulated for 24 hr with or without LPS (250 ng/ml) in the absence of presence of the RSCL-0409. Nitrite was then measured using the Griess reaction. 100 μl of cell culture supernatant was reacted with 100 μl of Griess reagent followed by spectrophotometric measurement at 550 nm. Nitrite concentrations in the supernatants were determined by comparison with a sodium nitrite standard curve. Alongside RSCL-0409 we also used known strong antioxidants (Vit C, Ascorbic acid, Catechin and Trolox) which inhibit NO to comparative antioxidant efficiency.
# NF-κB = NF-κB activation and nuclear translocation in LPS stimulated THP-1 cells (FACS phospho p65, immunoblot); type: cell-based, human
# Description: Further, for the detection of intracellular location of phospho NF-κB p65 subunits, 1 hr LPS-stimulated cells with and without pretreatment of RSCL-0409 (50 μM—FIG. 7b) were fixed with 4% paraformaldehyde in PBS for 30 min and washed with Fluorescence-activated cell sorting (FACS) buffer [2% Fetal calm serum (FCS) in 1× Phosphate buffered saline (PBS)]. Permeabilisation is done using 90% methanol. These cells were then treated with phospho p65 monoclonal antibody tagged with Alexa Fluor 488 (Cell Signaling Technology, Inc, Ma, USA) for 1 hr at 37° C., followed by washing FACS buffer. Cells were then resuspended in PBS and acquired in BD FACS Calibur.
# The nuclear fractions were obtained from LPS stimulated THP-1 cells at the indicated times (FIG. 7c). Nuclear proteins electrophoresed were processed for immunoblots using a NF-κB specific antibody.
# COX-2 pathway = test: Arachadonic acid induced PGE2 release in A549 cells (EIA); type: cell-based, human
# Text: COX-2 is the key enzyme regulating the production of prostaglandins, which act as central mediators of inflammation. […] It is well documented COX-2 pathway inhibitors were regarded as promising nonsteroidal anti-inflammatory drugs (NSAIDs). So we decided to test the ability of RSCL-0409 to block the COX-2 pathway to substantiate our earlier mRNA observation. For that purpose, we chose A549 cells, a human lung cancer cell line where COX-2 is activated by AA in serum-free stimulation established by Yao et al for 12 hr. (Yao J C, Duan W G, Yun Y, Liu de Q, Yan M, Jiang Z Z, Zhang L Y. Screening method for nonsteroidal antiinflammatory drugs based on the cyclooxygenase 2 pathway activated by serum-free stimulation in A549 cells. Yakugaku Zasshi. 2007; 127: 527-32.) In order to determine the efficiency of our molecule, we have incorporated two known COX-2 NSAIDs-Piroxicam and Ibuprofen for comparison purposes. A549 cells (50×10^4 cells/well) in serum free medium were pretreated with different concentrations (10 μM, 5 μM, 2.5 μM, and 1.25 μM) of the NSAIDs and RSCL-0409 for 30 min. Then the cells were incubated with AA ([…]) for another 30 min. Prostaglandin E2 (PGE2), a metabolite of AA through the Cox pathway, was assayed in an enzyme immunoassay (EIA) kit from R&D systems.
# TIRAP and MyD88 = test: Protein levels of TIRAP and MyD88 in LPS stimulated THP-1 cells (immunoblot); type: cell-based, human; conditions: THP-1, LPS 250 ng/ml, 1 hr pre-treatment
# Description: Further confirmation was obtained at the protein level. Serum-starved THP-1 cells were stimulated with LPS (250 ng/ml) for the indicated time in the presence and absence of RSCL-0409. RSCL-0409 treatment was 1 hr prior to LPS treatment. Immunoblotting of total protein was carried out as before to determine protein levels of TIRAP and MyD88.
# TNF = test: Pre-screen for TNF inhibition activity of synthesized molecules (Table 1); type: cell-based
# TNF-α = test: LPS induced TNF-α release in human PBMC; type: cell-based; conditions: PBMC isolated from human blood
# Text: In order to evaluate the ability of RSCL-0409 to inhibit LPS induced TNF-α secretion in a physiological scenario, the present invention has tested the same in PBMC isolated from human blood (FIG. 3). […] The TNF levels were not detectable in PBMCs without LPS and with RSCL-0409 treatment alone, indicating its specificity in LPS induced TNF-α through a TLR mediated process. ***P<0.001 value is for LPS treated vs. RSCL-0409 treated.
structure (smiles),measurement,setting,value
"COc1ccc(OC2OC3COC(c4ccccc4)OC3C(OC3OC(COC(=O)CCC(C)=O)C(OC(=O)CCl)C(OC(C)=O)C3OC(C)=O)C2NC(=O)C(Cl)(Cl)Cl)cc1 [RSCL-0409, p-Methoxy phenyl-O-(2,3-di-O-acetyl-4-O-chloroacetyl-6-O-levulinoyl-β-D-glucopyranosyl)-(1-3)-2-deoxy-2-trichloroacetamido-4,6-O-benzylidene-α-D-glucopyranoside]",reduction of serum TNF production,Balb/c mice; 10 mg/kg i.p. 30 min before LPS (225 μg i.p.),~53%
same,reduction of serum TNF production,Balb/c mice; 20 mg/kg i.p. 30 min before LPS (225 μg i.p.),~64%
same,reduction of serum TNF production,Balb/c mice; 40 mg/kg i.p. 30 min before LPS (225 μg i.p.),~67%
same,"mRNA expression of ICAM-1, COX-2, IL-1β and IL-8",[1],inhibited mRNA expression levels of the tested genes
same,"anti-oxidant activity versus reference antioxidants (Vit C, Ascorbic acid, Catechin and Trolox)",RAW264.7 cells,far more potent
same,NO secretion induced by LPS,RAW264.7 cells; 24 hr,inhibited by RSCL-0409 in a concentration dependent manner
same,phospho NF-κB p65 (FACS),"NF-κB; THP-1, 1 hr LPS, 50 μM",inhibitory role in NF-κB signaling
same,translocation of NF-κB to the nucleus,NF-κB; nuclear fractions of LPS stimulated THP-1 cells,blocked translocation of NF-κB into the nucleus
same,PGE2 release,"COX-2 pathway; A549 cells, 10, 5, 2.5 and 1.25 μM, AA induced",concentration dependent inhibition of PGE2 release
same,concentration still effective on PGE2 release,"COX-2 pathway; A549 cells, AA induced",1.25 µM
same,inhibition of PGE2 in comparison with the NSAIDs,COX-2 pathway; at all the concentrations used,better than Piroxicam
same,protein levels of TIRAP and MyD88,TIRAP and MyD88,Down regulation of TIRAP and also MyD88 at protein levels
same,% TNF Inhibition,TNF; 1 uM,0%
same,% TNF Inhibition,TNF; 10 uM,32%
same,% TNF Inhibition,TNF; 50 uM,81%
same,% TNF Inhibition,TNF; 100 uM,91%
same,LPS induced TNF-α secretion,TNF-α,inhibitory effects similar to that seen in THP-1 cells

# Reference: patent US20090215710A1, “CARBOHYDRATE BASED TOLL-LIKE RECEPTOR (TLR) ANTAGONISTS” (RELIANCE LIFE SCIENCES PVT. LTD., priority 2007, published 2009)
